Data taken from ChEMBL document CHEMBL1201862, “PubChem BioAssay data set” (2004).
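Tested at 5 concentrations; 48 h exposure; 96-well plates; endpoints linearly interpolated, else capped at highest concentration. Abbreviation: GI50, concentration required for 50% inhibition of growth.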 Active and inactive are the calls of the source. No stated cut-off is given here; in the data, active = GI50 up to about 1.1 µM and inactive = higher.

Assays:
Test in all cases: inhibition of tumour cell growth, NCI panel, 48 h
ACHN = system: ACHN
CAKI-1 = system: CAKI-1
COLO 205 = system: COLO 205
DLD-1 = system: DLD-1
HOP-92 = system: HOP-92
IGROV-1 = system: IGROV-1
NCI-H23 = system: NCI-H23
NCI-H522 = system: NCI-H522
RPMI-8226 = system: RPMI-8226
RXF 393 = system: RXF 393
SF-295 = system: SF-295
SK-MEL-5 = system: SK-MEL-5
SN12C = system: SN12C
DMS-273 = system: DMS-273
DU-145 = system: DU-145
MDA-MB-231 = system: MDA-MB-231
MDA-MB-435 = system: MDA-MB-435
PC-3 = system: PC-3
T47D = system: T47D

Measured: GI50

C[N+](C)(C)CC(=O)N/N=C(/Cc1nc2c3c(ccc2nc1O)C(=O)c1ccccc1C3=O)C(=O)Nc1ccc(Cl)c(Cl)c1
inactive: ACHN 24 µM | CAKI-1 15.5 µM | COLO 205 > 100 µM | DLD-1 17.9 µM | HOP-92 29.6 µM | IGROV-1 12.7 µM | NCI-H23 44.6 µM | NCI-H522 22.9 µM | RPMI-8226 17.4 µM | RXF 393 23.2 µM | SF-295 79.4 µM | SK-MEL-5 36.6 µM | SN12C 86.9 µM

COC(=O)CCCN(C)c1nc(N)n[nH]1
inactive: ACHN > 100 µM | COLO 205 > 100 µM | DLD-1 > 100 µM | DMS-273 > 100 µM | IGROV-1 > 100 µM | NCI-H23 > 100 µM | RPMI-8226 > 100 µM | RXF 393 > 100 µM | SF-295 > 100 µM | SK-MEL-5 > 100 µM | SN12C > 100 µM

O=C1NC(=O)C(c2c[nH]c3cc(Br)ccc23)=C1c1cn(C(c2ccccc2)(c2ccccc2)c2ccccc2)cn1
inactive: ACHN 20.2 µM | CAKI-1 22.6 µM | COLO 205 12.3 µM | DU-145 21.6 µM | HOP-92 13.9 µM | IGROV-1 12 µM | MDA-MB-231 5.97 µM | MDA-MB-435 6.24 µM | NCI-H23 11.3 µM | NCI-H522 13.3 µM | PC-3 6.19 µM | RPMI-8226 10.1 µM | RXF 393 15 µM | SF-295 18.1 µM | SK-MEL-5 10.5 µM | SN12C 15.5 µM | T47D 15.2 µM

N=S(c1ccccc1[N+](=O)[O-])c1ccccc1[N+](=O)[O-]
inactive: ACHN 1.22 µM | CAKI-1 2.07 µM | COLO 205 1.3 µM | DMS-273 2.16 µM | DU-145 2.64 µM | HOP-92 1.89 µM | IGROV-1 1.98 µM | MDA-MB-231 1.77 µM | NCI-H23 3.52 µM | PC-3 1.46 µM | RPMI-8226 1.14 µM | RXF 393 2.69 µM | SK-MEL-5 1.78 µM
active: NCI-H522 0.494 µM | SN12C 1.11 µM | T47D 0.311 µM

O=C(Cc1nc2ccccc2c(=O)n1-c1c(Cl)cccc1Cl)c1ccncc1
inactive: ACHN 17.9 µM | CAKI-1 23.6 µM | COLO 205 17.8 µM | DLD-1 26.7 µM | DMS-273 19.4 µM | HOP-92 13.8 µM | IGROV-1 22.4 µM | NCI-H23 36.8 µM | NCI-H522 19.6 µM | RXF 393 18.5 µM | SF-295 18 µM | SK-MEL-5 15.9 µM | SN12C 85.9 µM

CC1CCC2C(C)C(=O)OC2C2(C)C(=O)C=CC12 (stereo not drawn)
inactive: ACHN > 10 µM | CAKI-1 > 10 µM | COLO 205 > 10 µM | DU-145 > 10 µM | HOP-92 > 10 µM | IGROV-1 > 10 µM | MDA-MB-231 > 10 µM | MDA-MB-435 > 10 µM | NCI-H23 > 10 µM | NCI-H522 2.83 µM | PC-3 > 10 µM | RPMI-8226 8.47 µM | RXF 393 > 10 µM | SF-295 > 10 µM | SK-MEL-5 > 10 µM | SN12C > 10 µM | T47D > 10 µM

CCOC(=O)/C(C(N)=O)=C(O)/C(O)=C(\Br)C(=O)c1ccccc1
inactive: ACHN 19.1 µM | CAKI-1 11.1 µM | COLO 205 17.3 µM | DU-145 19.6 µM | HOP-92 19.9 µM | IGROV-1 15.9 µM | MDA-MB-231 19.6 µM | MDA-MB-435 16.9 µM | NCI-H23 18.8 µM | NCI-H522 1.72 µM | PC-3 17.4 µM | RPMI-8226 9.25 µM | RXF 393 15.6 µM | SF-295 56.8 µM | SK-MEL-5 16.6 µM | SN12C 18.5 µM | T47D 23.1 µM

Cc1nc(-c2nc(C)c(C(=O)/C=C/c3ccc([N+](=O)[O-])cc3)s2)sc1C(=O)/C=C/c1ccc([N+](=O)[O-])cc1
inactive: ACHN > 100 µM | CAKI-1 > 100 µM | COLO 205 > 100 µM | DLD-1 > 100 µM | HOP-92 > 100 µM | IGROV-1 > 100 µM | NCI-H23 > 100 µM | RPMI-8226 > 100 µM | RXF 393 > 100 µM | SF-295 > 100 µM | SK-MEL-5 > 100 µM | SN12C > 100 µM

C#CCNC(=O)ON1C(=O)CCC1=O
inactive: ACHN > 100 µM | COLO 205 > 100 µM | DLD-1 > 100 µM | DMS-273 > 100 µM | IGROV-1 > 100 µM | NCI-H23 > 100 µM | NCI-H522 > 100 µM | RPMI-8226 > 100 µM | RXF 393 > 100 µM | SF-295 > 100 µM | SN12C > 100 µM

CCOc1cc(C2SCC(=O)N2c2nc3cc4sc(N5C(=O)CSC5c5ccc(O)c(OCC)c5)nc4cc3s2)ccc1O (stereo not drawn)
inactive: ACHN > 48.4 µM | CAKI-1 > 50.7 µM | COLO 205 4.8 µM | DU-145 17.8 µM | HOP-92 27.7 µM | IGROV-1 15.9 µM | MDA-MB-231 > 48.5 µM | MDA-MB-435 29.9 µM | NCI-H23 9.59 µM | NCI-H522 20.4 µM | PC-3 58.5 µM | RPMI-8226 32.5 µM | RXF 393 > 100 µM | SF-295 > 100 µM | SK-MEL-5 59.2 µM | SN12C > 31.5 µM | T47D 40.2 µM

Cc1ccc2occ/c(=N\Nc3ccccc3)c2c1
inactive: ACHN > 100 µM | CAKI-1 54 µM | COLO 205 41.1 µM | DU-145 37.8 µM | HOP-92 19.5 µM | IGROV-1 7.83 µM | MDA-MB-231 88.5 µM | MDA-MB-435 17.9 µM | NCI-H23 28.1 µM | NCI-H522 84.7 µM | PC-3 63.1 µM | RPMI-8226 25.1 µM | RXF 393 21.8 µM | SF-295 32.2 µM | SK-MEL-5 41.5 µM | SN12C > 100 µM | T47D 1.33 µM

Fc1ccc(Nc2nnc(-c3ccccn3)s2)cc1
inactive: ACHN > 100 µM | CAKI-1 > 100 µM | COLO 205 > 100 µM | DU-145 > 100 µM | HOP-92 > 100 µM | IGROV-1 > 100 µM | MDA-MB-231 > 100 µM | MDA-MB-435 > 100 µM | NCI-H23 > 100 µM | NCI-H522 > 100 µM | PC-3 > 100 µM | RPMI-8226 > 100 µM | RXF 393 > 100 µM | SF-295 > 100 µM | SK-MEL-5 > 100 µM | SN12C > 100 µM | T47D 5.22 µM

CCOC(=O)n1ccc2c(C(=O)OC)c(C(=O)OC)cc(/C(=C/C(=O)OC)C(=O)OC)c21
inactive: ACHN > 100 µM | CAKI-1 > 100 µM | COLO 205 > 100 µM | DU-145 > 100 µM | HOP-92 34.3 µM | IGROV-1 > 100 µM | MDA-MB-231 > 100 µM | MDA-MB-435 > 100 µM | NCI-H23 > 100 µM | NCI-H522 57.1 µM | PC-3 > 100 µM | RPMI-8226 26.5 µM | RXF 393 66.8 µM | SF-295 > 100 µM | SK-MEL-5 > 100 µM | SN12C > 100 µM | T47D 74.5 µM

O=C1/C(=C/c2cccc(Oc3ccccc3)c2)N=C(c2ccccc2)N1c1nc2ccc(Sc3ccccc3)cc2[nH]1
inactive: ACHN 54.3 µM | CAKI-1 36.2 µM | COLO 205 16.9 µM | DU-145 27.3 µM | HOP-92 58.7 µM | IGROV-1 46.9 µM | MDA-MB-231 19.8 µM | MDA-MB-435 15.4 µM | NCI-H23 12.1 µM | NCI-H522 25.2 µM | PC-3 29.9 µM | RPMI-8226 20.5 µM | RXF 393 24.8 µM | SF-295 19.7 µM | SK-MEL-5 24.4 µM | SN12C 20.7 µM | T47D 23.6 µM

CC(C)/C(Cl)=N/OC(=O)Nc1ccc(OC(F)(F)F)cc1
inactive: ACHN 12.6 µM | CAKI-1 5.2 µM | COLO 205 1.84 µM | DU-145 17.2 µM | HOP-92 1.68 µM | IGROV-1 16.5 µM | MDA-MB-231 15.6 µM | MDA-MB-435 12.6 µM | NCI-H23 15.7 µM | NCI-H522 1.47 µM | PC-3 16.1 µM | RPMI-8226 2.49 µM | RXF 393 4.03 µM | SF-295 18.5 µM | SK-MEL-5 7.14 µM | SN12C 16.4 µM | T47D 8.55 µM

O=C(/C=C/c1ccccc1Cl)c1ccc(Cl)cc1Cl
inactive: ACHN 18.1 µM | CAKI-1 14.4 µM | COLO 205 18.1 µM | DLD-1 17.3 µM | DMS-273 15.7 µM | HOP-92 21 µM | IGROV-1 14.5 µM | NCI-H23 19.2 µM | RPMI-8226 9.55 µM | SF-295 19.3 µM | SK-MEL-5 15.3 µM | SN12C 17.9 µM

CCOC(=O)N1CCN(C=S)CC1
inactive: ACHN > 100 µM | COLO 205 > 100 µM | DLD-1 > 100 µM | DMS-273 > 100 µM | IGROV-1 > 100 µM | NCI-H23 > 100 µM | NCI-H522 > 100 µM | RXF 393 > 100 µM | SK-MEL-5 > 100 µM | SN12C > 100 µM

Oc1nc2nnc(COc3ccc(Cl)cc3Cl)n2nc1Cc1ccccc1
inactive: ACHN 41.8 µM | CAKI-1 > 100 µM | COLO 205 > 100 µM | DU-145 > 100 µM | HOP-92 32.7 µM | IGROV-1 24.2 µM | MDA-MB-231 43.2 µM | MDA-MB-435 > 100 µM | NCI-H23 43 µM | NCI-H522 > 100 µM | PC-3 > 100 µM | RPMI-8226 > 100 µM | RXF 393 21.5 µM | SF-295 32.3 µM | SK-MEL-5 > 100 µM | SN12C 57.1 µM | T47D 37.8 µM
